Data: patent US11000033B2, “Ketone or oxime compound, and herbicide” (NISSAN CHEMICAL CORPORATION, priority 2014, dated 2021)

Legend:
Type in all cases: in vivo
[1] = system: corn; assay: Test Example 4: effect on crop by soil treatment (symbol c); details: application herbicide amount 320 g/ha
Procedure, shortened: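 Steps: fill box with sterilized diluvial soil; sow seed spot-like; cover with ~1.5 cm soil; grow in greenhouse (25° C. to 30° C.).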

[2] = system: Leptochloa chinensis; assay: Test Example 3: herbicidal effect by foliage application, Wagner pot (symbol D); details: application herbicide amount 320 g/ha
Procedure, shortened: (§1)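 In a shallow-flooded alluvial soil system held at 25–30 °C, plants including rice grew for 14 days and were then sprayed over the foliage with emulsion diluted to a fixed herbicide amount. Visual rating followed at 3 weeks.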

[3] = system: soybean; assay: Test Example 4: effect on crop by soil treatment (symbol d); details: application herbicide amount 320 g/ha
Procedure, shortened: (§2)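 Seeds were sown in spots on sterilized diluvial soil in a plastic box and covered with about 1.5 cm of soil. Plants were then grown in a greenhouse at 25° C. to 30° C.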

[4] = system: transplanted rice plant; assay: Test Example 1: effect on crop, application before weed generation in submerged conditions (symbol a); details: application herbicide amount 320 g/ha
Procedure, shortened: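 Alluvial soil pots flooded to 4 cm water, sown with Echinochloa oryzacola, Scirpus juncoides and Monochoria vaginalis, then transplanted with 2.5 leaf stage rice seedlings; pre-emergence application. Greenhouse 25° C. to 30° C.; scored 0–5 by herbicidal ratio 3 weeks after application.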

[5] = system: Cyperus difformis; assay: Test Example 3: herbicidal effect by foliage application, Wagner pot (symbol E); details: application herbicide amount 320 g/ha
Procedure, shortened: as §1

[6] = system: rice plant; assay: Test Example 5: effect on crop by foliage application, plastic box (symbol b); details: 320 g/ha, 3 weeks after application
Procedure, shortened: (§3)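 Foliage-application test plants come from spot sowing in sterilized diluvial soil under a soil layer of about 1.5 cm, grown at 25° C. to 30° C. in a greenhouse.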

[7] = system: Stellaria media; assay: Test Example 4: herbicidal effect by soil treatment (symbol P); details: application herbicide amount 320 g/ha
Procedure, shortened: (§4)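 Seeds were sown in sterilized diluvial soil, covered with about 1.5 cm of soil, and the soil surface was sprayed with a water-diluted emulsion of the compound at a predetermined rate. Plants grew in a greenhouse at 25° C. to 30° C.; effects were scored visually 3 weeks after application.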

[8] = system: beet; assay: Test Example 5: effect on crop by foliage application, plastic box (symbol f); details: 320 g/ha, 3 weeks after application
Procedure, shortened: as §3

[9] = system: corn; assay: Test Example 5: effect on crop by foliage application, plastic box (symbol c); details: 320 g/ha, 3 weeks after application
Procedure, shortened: as §3

[10] = system: Monochoria vaginalis; assay: Test Example 1: herbicidal activity, application before weed generation in submerged conditions (symbol C); details: application herbicide amount 320 g/ha
Procedure, shortened: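 Ratings (5: ≥90%, near complete withering; 4: 70–<90%; 3: 40–<70%; 2: 20–<40%; 1: 5–<20%; 0: ≤5%) were assigned 3 weeks after the diluted emulsion was applied to the water surface of freshly sown, submerged pots.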

[11] = system: wheat; assay: Test Example 4: effect on crop by soil treatment (symbol e); details: application herbicide amount 320 g/ha
Procedure, shortened: as §2

[12] = system: Scirpus juncoides; assay: Test Example 2: herbicidal activity, application during weed generation in submerged conditions (symbol B); details: Table 23; application herbicide amount 320 g/ha; grade 0-5 by criteria of Test Example 1
Procedure, shortened: (§5)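 Compound was applied as a water-diluted emulsion into the standing water of flooded pots (4 cm) once co-sown weeds reached one to two leaves. Greenhouse temperature was 25° C. to 30° C., soil was alluvial, and each species was rated visually after 3 weeks.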

[13] = system: Echinochloa oryzacola Vasing.; assay: Test Example 2: herbicidal activity, application during weed generation in submerged conditions (symbol A); details: Table 23; application herbicide amount 320 g/ha; grade 0-5 by criteria of Test Example 1
Procedure, shortened: as §5

[14] = system: Echinochloa crus-galli var. crus-galli; assay: Test Example 3: herbicidal effect by foliage application, Wagner pot (symbol H); details: application herbicide amount 320 g/ha
Procedure, shortened: as §1

[15] = system: soybean; assay: Test Example 5: effect on crop by foliage application, plastic box (symbol d); details: 320 g/ha, 3 weeks after application
Procedure, shortened: as §3

[16] = system: Abutilon theophrasti; assay: Test Example 4: herbicidal effect by soil treatment (symbol M); details: application herbicide amount 320 g/ha
Procedure, shortened: as §4

## CON=C(C)C(C)C1CC(O)=C(c2c(C)cc(Br)cc2OC)C1=O (stereo not shown) [6-113]
[1]
  Effect on crop grade, c: corn: 1 (Herbicidal ratio of 5% or higher and lower than 20%)
[2]
  herbicidal effect on D (Leptochloa chinensis), grade 0-5: 5 (Herbicidal ratio of 90% or more (almost completely withered))
[3]
  Effect on crop grade, d: soybean: 0 (Herbicidal ratio of 5% or lower (almost no effect))
[4]
  Effect grade on crop, a: transplanted rice plant: 5 (Herbicidal ratio of 90% or more (almost completely withered))
[5]
  herbicidal effect on E, grade 0-5: 5 (Herbicidal ratio of 90% or more (almost completely withered))
[6]
  b: directly sowed rice plant, effect on crop (criteria of Test Example 1): 5 (Herbicidal ratio of 90% or more (almost completely withered))
[7]
  Herbicidal effect grade, P: Stellaria media: 0 (Herbicidal ratio of 5% or lower (almost no effect))
[8]
  f: beet, effect on crop (criteria of Test Example 1): 0 (Herbicidal ratio of 5% or lower (almost no effect))
[9]
  c: corn, effect on crop (criteria of Test Example 1): 5 (Herbicidal ratio of 90% or more (almost completely withered))
[10]
  Herbicidal effect grade, C: Monochoria vaginalis: 0 (Herbicidal ratio of 5% or lower (almost no effect))
[11]
  Effect on crop grade, e: wheat: 0 (Herbicidal ratio of 5% or lower (almost no effect))
[12]
  Herbicidal effect grade, B: Scirpus juncoides: 0 (Herbicidal ratio of 5% or lower (almost no effect))
[13]
  Herbicidal effect grade, A: Echinochloa oryzacola Vasing.: 5 (Herbicidal ratio of 90% or more (almost completely withered))
[14]
  herbicidal effect on H (Echinochloa crus-galli var. crus-galli), grade 0-5: 5 (Herbicidal ratio of 90% or more (almost completely withered))
[15]
  d: soybean, effect on crop (criteria of Test Example 1): 0 (Herbicidal ratio of 5% or lower (almost no effect))

## CC(=O)CC1CC(O)=C(c2c(C)cc(Oc3ccc(C(F)(F)F)cn3)cc2C)C1=O (stereo not shown) [7-019]
[1]
  Effect on crop grade, c: corn: 0 (Herbicidal ratio of 5% or lower (almost no effect))
[2]
  herbicidal effect on D (Leptochloa chinensis), grade 0-5: 4 (Herbicidal ratio of 70% or higher and lower than 90%)
[3]
  Effect on crop grade, d: soybean: 0 (Herbicidal ratio of 5% or lower (almost no effect))
[4]
  Effect grade on crop, a: transplanted rice plant: 0 (Herbicidal ratio of 5% or lower (almost no effect))
[5]
  herbicidal effect on E, grade 0-5: 2 (Herbicidal ratio of 20% or higher and lower than 40%)
[16]
  Herbicidal effect grade, M: Abutilon theophrasti: 0 (Herbicidal ratio of 5% or lower (almost no effect))
[6]
  b: directly sowed rice plant, effect on crop (criteria of Test Example 1): 1 (Herbicidal ratio of 5% or higher and lower than 20%)
[7]
  Herbicidal effect grade, P: Stellaria media: 0 (Herbicidal ratio of 5% or lower (almost no effect))
[8]
  f: beet, effect on crop (criteria of Test Example 1): 0 (Herbicidal ratio of 5% or lower (almost no effect))
[9]
  c: corn, effect on crop (criteria of Test Example 1): 2 (Herbicidal ratio of 20% or higher and lower than 40%)
[10]
  Herbicidal effect grade, C: Monochoria vaginalis: 0 (Herbicidal ratio of 5% or lower (almost no effect))
[11]
  Effect on crop grade, e: wheat: 0 (Herbicidal ratio of 5% or lower (almost no effect))
[14]
  herbicidal effect on H (Echinochloa crus-galli var. crus-galli), grade 0-5: 5 (Herbicidal ratio of 90% or more (almost completely withered))
[15]
  d: soybean, effect on crop (criteria of Test Example 1): 0 (Herbicidal ratio of 5% or lower (almost no effect))

## C#CCON=C(C)CC1CC(O)=C(c2c(C)cc(C)cc2C)C1=O (stereo not shown) [1-019]
[1]
  c (corn) effect on crop grade: 4 (Herbicidal ratio of 70% or higher and lower than 90%)
[2]
  herbicidal effect on D (Leptochloa chinensis), grade 0-5: 5 (Herbicidal ratio of 90% or more (almost completely withered))
[3]
  d (soybean) effect on crop grade: 3 (Herbicidal ratio of 40% or higher and lower than 70%)
[4]
  Effect grade on crop, a: transplanted rice plant: 5 (Herbicidal ratio of 90% or more (almost completely withered))
[5]
  herbicidal effect on E, grade 0-5: 5 (Herbicidal ratio of 90% or more (almost completely withered))
[16]
  M (Abutilon theophrasti) herbicidal effect grade: 4 (Herbicidal ratio of 70% or higher and lower than 90%)
[6]
  b: directly sowed rice plant, effect on crop grade: 5 (Herbicidal ratio of 90% or more (almost completely withered))
[8]
  f: beet, effect on crop grade: 4 (Herbicidal ratio of 70% or higher and lower than 90%)
[9]
  c: corn, effect on crop grade: 5 (Herbicidal ratio of 90% or more (almost completely withered))
[10]
  Herbicidal effect grade, C: Monochoria vaginalis: 2 (Herbicidal ratio of 20% or higher and lower than 40%)
[11]
  e (wheat) effect on crop grade: 3 (Herbicidal ratio of 40% or higher and lower than 70%)
[12]
  Herbicidal effect grade, B: Scirpus juncoides: 5 (Herbicidal ratio of 90% or more (almost completely withered))
[13]
  Herbicidal effect grade, A: Echinochloa oryzacola Vasing.: 5 (Herbicidal ratio of 90% or more (almost completely withered))
[14]
  herbicidal effect on H (Echinochloa crus-galli var. crus-galli), grade 0-5: 5 (Herbicidal ratio of 90% or more (almost completely withered))
[15]
  d: soybean, effect on crop grade: 3 (Herbicidal ratio of 40% or higher and lower than 70%)

## COc1cc(Br)cc(F)c1C1=C(O)CC(CC(C)=O)C1=O (stereo not shown) [7-029]
[1]
  Effect on crop grade, c: corn: 0 (Herbicidal ratio of 5% or lower (almost no effect))
[2]; Table 24
  D (Leptochloa chinensis) herbicidal effect grade: 4 (Herbicidal ratio of 70% or higher and lower than 90%)
[3]
  Effect on crop grade, d: soybean: 0 (Herbicidal ratio of 5% or lower (almost no effect))
[4]
  Effect grade on crop, a: transplanted rice plant: 0 (Herbicidal ratio of 5% or lower (almost no effect))
[5]; Table 24
  E herbicidal effect grade: 0 (Herbicidal ratio of 5% or lower (almost no effect))
[16]
  Herbicidal effect grade, M: Abutilon theophrasti: 0 (Herbicidal ratio of 5% or lower (almost no effect))
[7]
  Herbicidal effect grade, P: Stellaria media: 0 (Herbicidal ratio of 5% or lower (almost no effect))
[8]
  f: beet, effect on crop (criteria of Test Example 1): 0 (Herbicidal ratio of 5% or lower (almost no effect))
[10]
  Herbicidal effect grade, C: Monochoria vaginalis: 0 (Herbicidal ratio of 5% or lower (almost no effect))
[11]
  Effect on crop grade, e: wheat: 0 (Herbicidal ratio of 5% or lower (almost no effect))
[14]; Table 24
  H (Echinochloa crus-galli var. crus-galli) herbicidal effect grade: 3 (Herbicidal ratio of 40% or higher and lower than 70%)

## CON=C(C)CC1CC(OC(=O)C(C)(C)Oc2ccccc2)=C(c2c(C)cc(C)cc2C)C1=O (stereo not shown) [1-017]
[1]
  c (corn) effect on crop grade: 4 (Herbicidal ratio of 70% or higher and lower than 90%)
[2]
  herbicidal effect on D (Leptochloa chinensis), grade 0-5: 5 (Herbicidal ratio of 90% or more (almost completely withered))
[3]
  d (soybean) effect on crop grade: 2 (Herbicidal ratio of 20% or higher and lower than 40%)
[4]
  Effect grade on crop, a: transplanted rice plant: 5 (Herbicidal ratio of 90% or more (almost completely withered))
[5]
  herbicidal effect on E, grade 0-5: 5 (Herbicidal ratio of 90% or more (almost completely withered))
[16]
  M (Abutilon theophrasti) herbicidal effect grade: 5 (Herbicidal ratio of 90% or more (almost completely withered))
[6]
  b: directly sowed rice plant, effect on crop grade: 5 (Herbicidal ratio of 90% or more (almost completely withered))
[8]
  f: beet, effect on crop grade: 2 (Herbicidal ratio of 20% or higher and lower than 40%)
[9]
  c: corn, effect on crop grade: 4 (Herbicidal ratio of 70% or higher and lower than 90%)
[10]
  Herbicidal effect grade, C: Monochoria vaginalis: 2 (Herbicidal ratio of 20% or higher and lower than 40%)
[11]
  e (wheat) effect on crop grade: 2 (Herbicidal ratio of 20% or higher and lower than 40%)
[12]
  Herbicidal effect grade, B: Scirpus juncoides: 4 (Herbicidal ratio of 70% or higher and lower than 90%)
[13]
  Herbicidal effect grade, A: Echinochloa oryzacola Vasing.: 5 (Herbicidal ratio of 90% or more (almost completely withered))
[14]
  herbicidal effect on H (Echinochloa crus-galli var. crus-galli), grade 0-5: 5 (Herbicidal ratio of 90% or more (almost completely withered))
[15]
  d: soybean, effect on crop grade: 4 (Herbicidal ratio of 70% or higher and lower than 90%)
